Molecules are shown by their SMILES. pIC50: −log10 of the molar value. Read-outs that look alike come from different tables or passages of the source.

In one assay the target is PDGFRβ (Rattus norvegicus (Rat), UniProt Q05030). Kind of assay: PDGFRβ Cellular Assay (PDGFRb P-Y751 HTRF in A10 cells stimulated with PDGF-BB). It is filed as cell-based. The method, boiled down: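 Phospho-Y751 PDGFRβ was measured by HTRF in lysates of A10 rat cells. Cells received compound for 3 hours before PDGF-BB stimulation (100 ng/mL working stock).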
PDGFRβ, sequence (Q05030 32-1097): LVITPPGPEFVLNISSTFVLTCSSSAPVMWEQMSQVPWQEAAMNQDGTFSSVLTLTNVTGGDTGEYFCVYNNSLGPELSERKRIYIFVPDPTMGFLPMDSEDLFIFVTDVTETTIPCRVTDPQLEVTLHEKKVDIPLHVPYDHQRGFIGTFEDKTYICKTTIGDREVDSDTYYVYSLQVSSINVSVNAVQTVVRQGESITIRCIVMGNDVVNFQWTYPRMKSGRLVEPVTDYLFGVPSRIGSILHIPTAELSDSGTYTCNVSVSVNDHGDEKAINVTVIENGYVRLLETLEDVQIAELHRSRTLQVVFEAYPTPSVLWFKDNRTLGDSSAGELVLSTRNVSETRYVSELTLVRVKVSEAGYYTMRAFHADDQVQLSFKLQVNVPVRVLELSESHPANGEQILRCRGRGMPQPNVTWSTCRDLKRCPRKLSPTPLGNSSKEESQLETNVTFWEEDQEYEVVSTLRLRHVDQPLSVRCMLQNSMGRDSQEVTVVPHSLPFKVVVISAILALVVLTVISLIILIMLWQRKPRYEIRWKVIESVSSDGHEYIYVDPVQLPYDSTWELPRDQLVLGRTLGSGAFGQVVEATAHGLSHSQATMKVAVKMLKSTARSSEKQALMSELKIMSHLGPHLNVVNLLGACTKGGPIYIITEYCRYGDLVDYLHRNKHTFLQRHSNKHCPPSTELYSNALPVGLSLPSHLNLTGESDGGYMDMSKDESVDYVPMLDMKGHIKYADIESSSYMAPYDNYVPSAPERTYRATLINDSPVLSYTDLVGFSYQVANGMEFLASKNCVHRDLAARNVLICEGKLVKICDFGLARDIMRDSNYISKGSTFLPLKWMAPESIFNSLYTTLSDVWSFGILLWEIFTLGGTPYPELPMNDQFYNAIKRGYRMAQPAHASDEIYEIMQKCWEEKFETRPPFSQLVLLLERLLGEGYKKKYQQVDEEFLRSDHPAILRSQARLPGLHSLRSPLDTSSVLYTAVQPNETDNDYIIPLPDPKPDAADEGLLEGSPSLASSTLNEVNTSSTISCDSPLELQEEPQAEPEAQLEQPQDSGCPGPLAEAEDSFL
(In general: Time-resolved FRET reads energy transfer from a long-lived donor to a nearby acceptor.)

For a further assay, the target named is VEGFR2, unphosphorylated (Homo sapiens (Human), UniProt P35968). Briefly: VEGFR ADP GLO Assay. It counts as biochemical. (ADP-Glo turns the ADP formed in a reaction into a luminescent signal.)
VEGFR2, unphosphorylated, sequence (P35968 20-1356): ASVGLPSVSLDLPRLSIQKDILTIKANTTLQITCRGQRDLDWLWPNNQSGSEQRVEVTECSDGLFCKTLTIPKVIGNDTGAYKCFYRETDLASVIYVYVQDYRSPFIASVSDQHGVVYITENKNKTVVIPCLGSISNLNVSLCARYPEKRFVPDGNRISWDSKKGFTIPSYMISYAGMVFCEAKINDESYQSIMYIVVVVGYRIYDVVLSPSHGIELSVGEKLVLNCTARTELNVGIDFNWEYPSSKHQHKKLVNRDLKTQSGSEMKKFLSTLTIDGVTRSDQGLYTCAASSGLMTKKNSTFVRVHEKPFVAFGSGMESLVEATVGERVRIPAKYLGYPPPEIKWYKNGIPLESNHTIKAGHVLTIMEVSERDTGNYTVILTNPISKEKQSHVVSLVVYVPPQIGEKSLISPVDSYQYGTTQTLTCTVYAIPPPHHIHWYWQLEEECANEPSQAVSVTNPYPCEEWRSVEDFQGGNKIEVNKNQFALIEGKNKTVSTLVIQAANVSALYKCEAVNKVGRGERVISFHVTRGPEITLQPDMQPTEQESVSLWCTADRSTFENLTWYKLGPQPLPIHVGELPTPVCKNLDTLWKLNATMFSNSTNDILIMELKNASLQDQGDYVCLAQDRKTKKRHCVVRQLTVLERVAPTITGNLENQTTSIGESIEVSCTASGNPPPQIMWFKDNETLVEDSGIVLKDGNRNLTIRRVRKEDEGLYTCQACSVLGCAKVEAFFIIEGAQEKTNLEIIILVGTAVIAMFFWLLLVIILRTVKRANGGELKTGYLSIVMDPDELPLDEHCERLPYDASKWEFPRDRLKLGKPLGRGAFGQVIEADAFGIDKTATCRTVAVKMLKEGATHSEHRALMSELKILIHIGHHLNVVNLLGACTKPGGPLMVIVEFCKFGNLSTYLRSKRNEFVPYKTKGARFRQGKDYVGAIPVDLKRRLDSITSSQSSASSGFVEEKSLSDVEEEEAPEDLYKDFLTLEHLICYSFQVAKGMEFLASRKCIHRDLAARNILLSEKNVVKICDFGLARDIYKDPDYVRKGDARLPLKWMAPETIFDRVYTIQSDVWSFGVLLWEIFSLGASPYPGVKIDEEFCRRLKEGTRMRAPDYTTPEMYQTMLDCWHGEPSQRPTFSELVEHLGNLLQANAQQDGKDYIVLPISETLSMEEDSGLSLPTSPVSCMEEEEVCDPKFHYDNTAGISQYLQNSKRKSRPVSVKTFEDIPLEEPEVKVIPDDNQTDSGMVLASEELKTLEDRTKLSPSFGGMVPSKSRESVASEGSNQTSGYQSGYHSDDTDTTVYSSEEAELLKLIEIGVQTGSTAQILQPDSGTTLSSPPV
Assay [1] addresses Tb-labeled inactive PDGFRβ (Homo sapiens (Human), UniProt P09619). Kind of assay: PDGFRβ LanthaScreen Assay. It is filed as binding. To be noted: read-out: PDGFR Lantha IC50.

Tb-labeled inactive PDGFRβ, sequence (P09619 33-1106): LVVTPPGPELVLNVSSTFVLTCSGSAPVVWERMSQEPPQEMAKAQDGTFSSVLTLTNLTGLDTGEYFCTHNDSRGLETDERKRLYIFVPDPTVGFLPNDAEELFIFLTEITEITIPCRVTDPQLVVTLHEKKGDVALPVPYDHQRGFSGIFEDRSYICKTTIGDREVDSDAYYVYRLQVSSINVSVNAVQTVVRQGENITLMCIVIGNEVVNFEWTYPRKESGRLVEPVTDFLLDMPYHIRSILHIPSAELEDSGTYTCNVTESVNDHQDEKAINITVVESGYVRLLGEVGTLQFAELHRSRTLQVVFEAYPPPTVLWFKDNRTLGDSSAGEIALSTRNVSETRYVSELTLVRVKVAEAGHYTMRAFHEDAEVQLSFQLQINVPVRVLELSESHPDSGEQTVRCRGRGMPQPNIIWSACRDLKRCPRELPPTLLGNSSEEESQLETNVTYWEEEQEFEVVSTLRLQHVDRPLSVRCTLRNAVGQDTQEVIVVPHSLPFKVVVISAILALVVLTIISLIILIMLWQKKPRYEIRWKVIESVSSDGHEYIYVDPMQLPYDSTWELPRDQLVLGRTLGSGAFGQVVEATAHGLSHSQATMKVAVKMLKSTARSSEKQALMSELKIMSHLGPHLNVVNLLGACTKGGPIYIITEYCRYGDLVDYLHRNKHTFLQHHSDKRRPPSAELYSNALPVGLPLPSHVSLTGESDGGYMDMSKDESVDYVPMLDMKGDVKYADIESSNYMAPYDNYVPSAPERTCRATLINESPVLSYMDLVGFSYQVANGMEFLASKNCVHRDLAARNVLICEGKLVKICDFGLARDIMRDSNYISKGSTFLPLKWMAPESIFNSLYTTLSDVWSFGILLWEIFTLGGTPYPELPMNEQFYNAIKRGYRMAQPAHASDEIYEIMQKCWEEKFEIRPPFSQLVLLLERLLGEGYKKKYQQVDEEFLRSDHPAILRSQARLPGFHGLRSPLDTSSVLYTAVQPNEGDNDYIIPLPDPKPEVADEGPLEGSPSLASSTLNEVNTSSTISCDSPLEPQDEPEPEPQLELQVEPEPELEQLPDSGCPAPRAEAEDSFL

`Cc1ncc(NC(=O)CCN2CCCC2(C)C)cc1NC(=O)c1cnn2cc(-c3ccn(C)n3)sc12` [Example 12, N-(5-(3-(2,2-dimethylpyrrolidin-1-yl)propanamido)-2-methyl-pyridin-3-yl)-2-(1-methyl-1H-pyrazol-3-yl)pyrazolo[5,1-b]thiazole-7-carboxamide]: the pIC50 (usually the IC50 on a negative log10 scale, so that one unit is a factor of ten) on PDGFRβ (read-out: PDGFR Cellular IC50) is 8.11; on VEGFR2, unphosphorylated, less than 5.12; in assay [1], 8.48.
In the case of `Cc1ncc(NC(=O)CN2CCCC2(C)C)cc1NC(=O)c1cnn2cc(-c3cnn(C)c3)sc12` [Example 13, N-(5-(2-(2,2-dimethylpyrrolidin-1-yl)acetamido)-2-methylpyridin-3-yl)-2-(1-methyl-1H-pyrazol-4-yl)pyrazolo[5,1-b]thiazole-7-carboxamide], the pIC50 on PDGFRβ (read-out: PDGFR Cellular IC50) is 8.48; at VEGFR2, unphosphorylated it was less than 5.12; in assay [1] it was 8.30.
`Cc1ncc(NC(=O)CN2CCC(F)(F)CC2)cc1NC(=O)c1cnn2cc(-c3cnn(C)c3)sc12` [Example 14, N-(5-(2-(4,4-difluoropiperidin-1-yl)acetamido)-2-methylpyridin-3-yl)-2-(1-methyl-1H-pyrazol-4-yl)pyrazolo[5,1-b]thiazole-7-carboxamide]: the pIC50 on PDGFRβ (read-out: PDGFR Cellular IC50) was 8.36; against VEGFR2, unphosphorylated, less than 5.12; in assay [1], 8.57.
In the case of `Cc1ncc(NC(=O)CN(C)C2CCOCC2)cc1NC(=O)c1cnn2cc(-c3cnn(C)c3)sc12` [Example 15, 2-(1-methyl-1H-pyrazol-4-yl)-N-(2-methyl-5-(2-(methyl(tetrahydro-2H-pyran-4-yl)amino)acetamido)pyridin-3-yl)pyrazolo[5,1-b]thiazole-7-carboxamide], the pIC50 is 7.80 on PDGFRβ (read-out: PDGFR Cellular IC50); less than 5.12 on VEGFR2, unphosphorylated; 8.33 in assay [1].
Consider `Cc1ncc(NC(=O)CN2CCCC23CC3)cc1NC(=O)c1cnn2cc(-c3cnn(C)c3)sc12` [Example 16, N-(5-(2-(4-azaspiro[2.4]heptan-4-yl)acetamido)-2-methylpyridin-3-yl)-2-(1-methyl-1H-pyrazol-4-yl)pyrazolo[5,1-b]thiazole-7-carboxamide], for which the pIC50 is 8.39 at PDGFRβ (read-out: PDGFR Cellular IC50); less than 5.12 at VEGFR2, unphosphorylated; 8.29 in assay [1].
The like results for `Cc1ncc(NC(=O)CN2CCc3cnn(C)c3C2)cc1NC(=O)c1cnn2cc(-c3cnn(C)c3)sc12` [Example 17, 2-(1-methyl-1H-pyrazol-4-yl)-N-(2-methyl-5-(2-(1-methyl-4,5-dihydro-1H-pyrazolo[3,4-c]pyridin-6 (7H)-yl)acetamido)pyridin-3-yl)pyrazolo[5,1-b]thiazole-7-carboxamide] were, in that order, 7.16, less than 5.12 and 8.22.
The like results for `Cc1ncc(NC(=O)CN2CCC3(COC3)C2)cc1NC(=O)c1cnn2cc(-c3cnn(C)c3)sc12` [Example 18, N-(5-(2-(2-oxa-6-azaspiro[3.4]octan-6-yl)acetamido)-2-methylpyridin-3-yl)-2-(1-methyl-1H-pyrazol-4-yl)pyrazolo[5,1-b]thiazole-7-carboxamide] were, in that order, 7.30, less than 5.12 and 8.02.
As for `Cc1ncc(C(=O)NCCN2CC3CCC2CC3)cc1NC(=O)c1cnn2cc(-c3cnn(C(F)F)c3)sc12` [Example 180, N-(5-((2-(2-azabicyclo[2.2.2]octan-2-yl)ethyl)carbamoyl)-2-methylpyridin-3-yl)-2-(1-(difluoromethyl)-1H-pyrazol-4-yl)pyrazolo[5,1-b]thiazole-7-carboxamide], the pIC50 against PDGFRβ (PDGFR Cellular IC50) is 7.42; at VEGFR2, unphosphorylated, less than 5.12; in assay [1], 8.21.
For the compound `Cc1ncc(C(=O)NCCN2CC3CCC2CC3)cc1NC(=O)c1cnn2cc(-c3cnn(C4CC4)c3)sc12` [Example 181, N-(5-((2-(2-azabicyclo[2.2.2]octan-2-yl)ethyl)carbamoyl)-2-methylpyridin-3-yl)-2-(1-cyclopropyl-1H-pyrazol-4-yl)pyrazolo[5,1-b]thiazole-7-carboxamide], the pIC50 is 7.79 on PDGFRβ (read-out: PDGFR Cellular IC50); less than 5.12 on VEGFR2, unphosphorylated; 8.64 in assay [1].
The like results for `Cc1cc(C(=O)NCCN2CCCC2(C)C)sc1NC(=O)c1cnn2cc(-c3cnn(C)c3)sc12` [Example 182, N-(5-((2-(2,2-dimethylpyrrolidin-1-yl)ethyl)carbamoyl)-3-methylthiophen-2-yl)-2-(1-methyl-1H-pyrazol-4-yl)pyrazolo[5,1-b]thiazole-7-carboxamide] were, in that order, 5.77, less than 5.12 and 5.70.
For `Cc1cc(C(=O)NCCN2CCC(C)(C)CC2)sc1NC(=O)c1cnn2cc(-c3cnn(C)c3)sc12` [Example 183, N-(5-((2-(4,4-dimethylpiperidin-1-yl)ethyl)carbamoyl)-3-methylthiophen-2-yl)-2-(1-methyl-1H-pyrazol-4-yl)pyrazolo[5,1-b]thiazole-7-carboxamide], the pIC50 at PDGFRβ (read-out: PDGFR Cellular IC50) is 6.75; at VEGFR2, unphosphorylated it was less than 5.12; in assay [1], 6.19.
For the compound `Cc1cc(C(=O)NCCN2CCCC2(C)C)sc1NC(=O)c1cnn2cc(-c3ccc(N)nc3)sc12` [Example 184, 2-(6-aminopyridin-3-yl)-N-(5-((2-(2,2-dimethylpyrrolidin-1-yl)ethyl)carbamoyl)-3-methylthiophen-2-yl)pyrazolo[5,1-b]thiazole-7-carboxamide], the pIC50 was 5.79 on PDGFRβ (read-out: PDGFR Cellular IC50); less than 5.12 on VEGFR2, unphosphorylated; 6.08 in assay [1].
The like results for `Cc1cc(C(=O)NCCN2CCCC2(C)C)sc1NC(=O)c1cnn2cc(-c3cncnc3)sc12` [Example 185, N-(5-((2-(2,2-dimethylpyrrolidin-1-yl)ethyl)carbamoyl)-3-methylthiophen-2-yl)-2-(pyrimidin-5-yl)pyrazolo[5,1-b]thiazole-7-carboxamide] were, in that order, 7.37, less than 5.12 and less than 5.52.
The like results for `Cc1cc(C(=O)NCCN2CCCC2(C)C)sc1NC(=O)c1cnn2cc(-c3cnn(C)n3)sc12` [Example 186, N-(5-((2-(2,2-dimethylpyrrolidin-1-yl)ethyl)carbamoyl)-3-methylthiophen-2-yl)-2-(2-methyl-2H-1,2,3-triazol-4-yl)pyrazolo[5,1-b]thiazole-7-carboxamide] were, in that order, 6.23, less than 5.12 and 5.65.
On to `Cc1cc(C(=O)NCCN2CCCC2(C)C)sc1NC(=O)c1cnn2cc(-c3ccncc3)sc12` [Example 187, N-(5-((2-(2,2-dimethylpyrrolidin-1-yl)ethyl)carbamoyl)-3-methylthiophen-2-yl)-2-(pyridin-4-yl)pyrazolo[5,1-b]thiazole-7-carboxamide], for which the pIC50 is 5.99 at PDGFRβ (read-out: PDGFR Cellular IC50); less than 5.12 against VEGFR2, unphosphorylated; 5.93 in assay [1].
The like results for `Cc1cc(C(=O)NCCN2CCCC2(C)C)sc1NC(=O)c1cnn2cc(-c3ccn(C)n3)sc12` [Example 188, N-(5-((2-(2,2-dimethylpyrrolidin-1-yl)ethyl)carbamoyl)-3-methylthiophen-2-yl)-2-(1-methyl-1H-pyrazol-3-yl)pyrazolo[5,1-b]thiazole-7-carboxamide] were, in that order, 6.46, less than 5.12 and 6.17.
For the compound `Cc1cc(C(=O)NCCN2CCC(C)(C)C2)sc1NC(=O)c1cnn2cc(-c3cnn(C)c3)sc12` [Example 189, N-(5-((2-(3,3-dimethylpyrrolidin-1-yl)ethyl)carbamoyl)-3-methylthiophen-2-yl)-2-(1-methyl-1H-pyrazol-4-yl)pyrazolo[5,1-b]thiazole-7-carboxamide], the pIC50 was 7.14 at PDGFRβ (read-out: PDGFR Cellular IC50); less than 5.12 against VEGFR2, unphosphorylated; 6.50 in assay [1].
Consider `Cc1cc(C(=O)NCCN(C)C2CCCC2)sc1NC(=O)c1cnn2cc(-c3cnn(C)c3)sc12` [Example 190, N-(5-((2-(cyclopentyl(methyl)amino)ethyl)carbamoyl)-3-methylthiophen-2-yl)-2-(1-methyl-1H-pyrazol-4-yl)pyrazolo[5,1-b]thiazole-7-carboxamide], for which the pIC50 is 6.83 at PDGFRβ (PDGFR Cellular IC50); less than 5.12 against VEGFR2, unphosphorylated; 6.40 in assay [1].
`Cc1cc(C(=O)NCCN2CCC(O)CC2)sc1NC(=O)c1cnn2cc(-c3cnn(C)c3)sc12` [Example 191, N-(5-((2-(4-hydroxypiperidin-1-yl)ethyl)carbamoyl)-3-methylthiophen-2-yl)-2-(1-methyl-1H-pyrazol-4-yl)pyrazolo[5,1-b]thiazole-7-carboxamide]: the pIC50 on PDGFRβ (read-out: PDGFR Cellular IC50) was less than 5.52; against VEGFR2, unphosphorylated, less than 5.12; in assay [1] it was less than 5.52.
Take `Cc1cc(C(=O)NCCN(C)C2CCOCC2)sc1NC(=O)c1cnn2cc(-c3cnn(C)c3)sc12` [Example 192, 2-(1-methyl-1H-pyrazol-4-yl)-N-(3-methyl-5-((2-(methyl(tetrahydro-2H-pyran-4-yl)amino)ethyl)carbamoyl)thiophen-2-yl)pyrazolo[5,1-b]thiazole-7-carboxamide]: the pIC50 on PDGFRβ (read-out: PDGFR Cellular IC50) is less than 5.52; against VEGFR2, unphosphorylated, less than 5.12; in assay [1], 5.86.
Consider `Cc1cc(C(=O)NCCN2CCC(CO)CC2)sc1NC(=O)c1cnn2cc(-c3cnn(C)c3)sc12` [Example 193, N-(5-((2-(4-(hydroxymethyl)piperidin-1-yl)ethyl)carbamoyl)-3-methylthiophen-2-yl)-2-(1-methyl-1H-pyrazol-4-yl)pyrazolo[5,1-b]thiazole-7-carboxamide], for which the pIC50 at PDGFRβ (read-out: PDGFR Cellular IC50) is less than 5.52; on VEGFR2, unphosphorylated it was less than 5.12; in assay [1], less than 5.52.
On to `Cc1cc(C(=O)NCCN2CC[C@@H](O)C2)sc1NC(=O)c1cnn2cc(-c3cnn(C)c3)sc12` [Example 194, (R)—N-(5-((2-(3-hydroxypyrrolidin-1-yl)ethyl)carbamoyl)-3-methylthiophen-2-yl)-2-(1-methyl-1H-pyrazol-4-yl)pyrazolo[5,1-b]thiazole-7-carboxamide], for which the pIC50 is less than 5.52 at PDGFRβ (read-out: PDGFR Cellular IC50); 5.69 on VEGFR2, unphosphorylated; less than 5.52 in assay [1].

Source of the values: US20240109917A1 (ACTELION PHARMACEUTICALS LTD, priority 2020, published 2024).
